This is an account of results in ChEMBL document CHEMBL3860106, “Identification of the Binding Site of Chroman-4-one-Based Sirtuin 2-Selective Inhibitors using Photoaffinity Labeling in Combination with Tandem Mass Spectrometry” (J Med Chem, 2016).

Data set [1] has as its target T1, NAD-dependent protein deacetylase sirtuin-2 (Homo sapiens) (UniProt Q8IXJ6).
T1 sequence (whole entry): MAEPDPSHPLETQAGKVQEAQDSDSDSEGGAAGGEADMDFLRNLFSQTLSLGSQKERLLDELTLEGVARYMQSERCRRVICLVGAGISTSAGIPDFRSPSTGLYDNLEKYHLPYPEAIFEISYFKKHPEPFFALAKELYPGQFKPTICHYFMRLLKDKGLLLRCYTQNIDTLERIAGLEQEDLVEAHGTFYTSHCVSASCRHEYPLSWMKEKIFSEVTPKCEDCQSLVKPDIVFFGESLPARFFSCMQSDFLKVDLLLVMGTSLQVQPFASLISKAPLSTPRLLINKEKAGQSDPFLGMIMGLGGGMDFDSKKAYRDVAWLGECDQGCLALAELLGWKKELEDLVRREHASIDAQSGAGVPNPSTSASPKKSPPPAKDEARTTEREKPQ
Briefly: Inhibition of SIRT2 (unknown origin) at 200 uM by fluorescence-based assay.

Data set [2] in a line: Drug metabolism assessed as compound formation using compound 4 irradiated with 365 nm 23 mW/cm2 UV light using high-power light-emitting diode by UV/vis spectroscopy. It counts as ADME.
The target in data set [3] is T2, NAD-dependent protein deacetylase sirtuin-2 (Homo sapiens, UniProt Q8IXJ6).
T2 sequence (Q8IXJ6 whole entry): T1 sequence (whole entry)
Briefly: Inhibition of SIRT2 (unknown origin) by fluorescence-based assay.

Data set [4] can be described thus: Photo activation assessed as [photo-decomposition irradiated with 365 nm 23 mW/cm2 UV light using high-power light-emitting diode by 1H and 19F NMR spectroscopy. It is filed as physicochemical.
Data set [5] addresses T1, NAD-dependent protein deacetylase sirtuin-2 (Homo sapiens). The data set is described as follows: Binding affinity to recombinant SIRT2 (unknown origin) assessed as photoaffinity labeling at H187 residue at 400 uM in presence of NAD+ and peptide substrate by LC-MS/MS method.
Data set [6] has the same target. Briefly: Binding affinity to recombinant SIRT2 (unknown origin) assessed as detection of tryptic peptide with amino acid sequence 175-IAGLEQEDLVEAHGTFYTSHCVSASCRHEYPLSWMK-210 at 400 uM in presence of NAD+ and peptide substrate by LC-MS/MS method.

pIC50: −log10 of the molar value. Activity calls are given as the source filed them. The rule behind the calls is not given here.

Consider `CCCCCC1CC(=O)c2cc(N=[N+]=[N-])ccc2O1` (configuration not stated), for which, in data set [1], the inhibition (as a rule, the change of the read-out against control, counted positive when it falls) worked out at 51%.

Regarding `CCCCCC1CC(=O)c2cc(C(=[N+]=[N-])C(F)(F)F)ccc2O1` (configuration not stated), in data set [2], the Drug uptake entry is listed as “Metabolite_Detected”.

`CCCCCC1CC(=O)c2cc(C3(C(F)(F)F)N=N3)ccc2O1` (configuration not stated) came in with an inhibition in data set [1] of 78%. In data set [3], the pIC50 (usually the IC50 on a negative log10 scale, so that one unit is a factor of ten) is 5.09. In addition, the Drug metabolism result in data set [4] is reported as “Metabolite_Detected”. The outcome in data set [5] and in data set [6] was Active.
